“Also recorded” adds a separate entry of the source. Where a name gives a salt, the structure may show the parent alone.
Legend:
[1] = system: mitochondrial KATP channels; settings: for comparison; cited from earlier work
[2] = system: electrically evoked release of Glu; assay: electrically evoked [^3H]-Glu release from [^3H]-Gln-loaded hippocampus slices; format: cell-based, rat
[3] = system: ischemia-induced [^3H]-Glu release; assay: in vitro ischemia model: ischemia-induced [^3H]-Glu release from [^3H]-Gln-loaded hippocampal slices; format: cell-based, rat
Procedure: Rat hippocampus slices 350 μm thick were incubated in 3 ml of medium at 37° C. for 60 minutes. The medium contained 2 μM [^3H]-Gln to label the endogenous Gln pool. The slices then synthesized Glu. The slices were washed and then exposed to superfusion with a buffer for 50 minutes. At 5-minute intervals, [^3H]-Glu was extracted by anion exchange chromatography from a total of 15 superfusion samples and was measured by liquid scintillation counting. The fractional rates of [^3H]-Glu release were calculated from the [^3H]-Glu extracted from the superfusion samples and from the tissue slices after the superfusion.
The model of endogenously produced [^3H]-Glu was likewise used to generate ischemic conditions in vitro. To make a slice “quasi ischemic”, oxygen and glucose were replaced by nitrogen and sucrose during the superfusion. Sucrose was used in place of […] glucose in order to maintain the osmolarity of the superfusion fluid. It is known that sucrose cannot be cleaved in vitro to glucose and fructose. Unlike the tests in which the [^3H]-Glu release was induced electrically, and in order to simulate an ischemia as well as possible, the [^3H]-Glu release was carried out during the incubation and superfusion at 37° C.
Slices of 350 μm thickness were incubated at 37° C. for 60 min in 3 ml medium containing 2 μM [^3H]-Gln in order to label endogenous Gln pools. These slices subsequently were synthesizing Glu. The slices were washed and then superfused for 50 min with buffer. [^3H]-Glu was extracted from 15 5-min-superfusion samples and from the slices by anion-exchange chromatography and measured by liquid scintillation counting. Fractional rates of [^3H]-Glu release were calculated from extracted [^3H]-Glu in the superfusion samples and in the tissue slices obtained after superfusion.
To reproduce in vitro ischemic conditions the model of endogenously formed [^3H]-Glu was also used. To make a slice “quasi-ischemic”, oxygen was replaced by nitrogen and glucose was replaced by sucrose during superfusion. Sucrose was used instead of glucose in order to maintain the osmolarity of the superfusion fluid without being cleaved into glucose and fructose in vitro. At variance to the experiments on electrically evoked [^3H]-Glu release and in order to mimic ischemia as close as possible the experiments on ischemia-induced [^3H]-Glu release were performed at 37° C. throughout incubation and superfusion.
To assess the potency of glibenclamide concentration-inhibition curves of GBP-L on ischemia-induced [^3H]-Glu efflux were obtained in the absence and presence of 0.1 μM glibenclamide (see Jehle et al. 2000).

[4] = system: potassium-evoked release of [^3H]-noradrenaline; settings: cited from earlier work

CC1=NS(=O)(=O)c2cc(Cl)ccc2N1 [diazoxide]
IC50 [1]: 50 µM

NC1=N[C@H](O)[C@H]2[C@H]3O[C@]4(O)O[C@@H]([C@@H](O)[C@@]2(N1)[C@@H]4O)[C@]3(O)CO [TTX, tetrodotoxin, reference compound]
electrically evoked release of Glu (in words) [2]: partly inhibited; also recorded: widely inhibited

Nc1cc(N2CCCCC2)nc(N)[n+]1OS(=O)(=O)[O-] [minoxidil sulfate]
ischemia-induced [^3H]-Glu efflux (in words) ([3]; 10 μM): significantly reduced

CC(C)C[C@H](CN)CC(=O)O [pregabalin]
potassium-evoked release of [^3H]-noradrenaline (in words) [4]: inhibitory effects

COc1ccc(Cl)cc1C(=O)NCCc1ccc(S(=O)(=O)NC(=O)NC2CCCCC2)cc1 [glibenclamide]
pA2 value ([3]; glibenclamide 0.1 μM against GBP-L concentration-response curve): 8.28
influence on the effect of GBP-L on ischemia-induced [^3H]-Glu release ([3]; glibenclamide 1 μM): completely abolished

O=C(O)[C@@H]1CN[C@@H](C(=O)O)C1 (relative stereo) [PDC, L-trans-pyrrolidine-2,4-dicarboxylate]
response to the ischemia ([^3H]-Glu release) ([3]; 100 μM): noticeably reduced; also recorded: diminishes the response to ischemia markedly

— patent US6984659B2, “2-pyrrolidinone derivatives substituted at position 4 for reducing the extracellular glutamate level” (priority 1997, dated 2006)
